Assay results taken from PMC13070491, “Single-nucleus transcriptomics, pharmacokinetics, and pharmacodynamics of CDK4/6 and mTOR inhibition in a Phase 0/1 trial of recurrent high-grade glioma” (Neuro-Oncology, 2025).
Where “and” joins values, the source holds several entries; their conditions need not be identical. Equal values may be shown once.

Test: CNS penetration: total and unbound drug concentrations in tumor regions, CSF and plasma (LC-MS/MS, equilibrium dialysis);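 also: drug levels in patient tumor tissue from contrast-enhancing and non-enhancing regions sampled under MRI-guided neuronavigation, with plasma and CSF drawn during surgical resection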
Settings: for concentration at 5 days / Kp at 120 h / Kp: human, oral
[1] = Level 6: Ribociclib 600mg QD + Everolimus 70mg once on Day 5, sampling 7-9 Hours, per patient

With `CO[C@H]1C[C@@H]2CC[C@@H](C)[C@@](O)(O2)C(=O)C(=O)N2CCCC[C@H]2C(=O)O[C@H]([C@H](C)C[C@@H]2CC[C@@H](OCCO)[C@H](OC)C2)CC(=O)[C@H](C)/C=C(\C)[C@@H](O)[C@@H](OC)C(=O)[C@H](C)C[C@H](C)/C=C/C=C/C=C/1C` [Everolimus, everolimus] the Everolimus.Unbound.plasma (Level 5: Ribociclib 600mg QD + Everolimus 60mg once on Day 5, sampling 7-9 Hours, per patient) was 4.09E-04 and 6.26E-04 and 4.66E-04, the Everolimus.CSF [1] was 1.14E-02 and BLQ and 1.29E-03 and the Everolimus.Enhancing.tumor [1] was 7.18E-02 and 9.00E-02 and 3.12E-02. For the same molecule, the Everolimus.Non-enhancing.tumor [1] was 7.82E-02 and 8.24E-03 and 6.80E-03, the Everolimus.Plasma.conc [1] was 0.0531 and 0.05464 and 0.09057 and the Everolimus.Unbound.enhancing [1] was “BLQ”. For the same molecule, the Everolimus.Unbound.non-enhancing [1] was “BLQ”, the Everolimus.Unbound.plasma [1] was 3.00E-04 and 2.82E-04 and 4.90E-04 and the “Kp total drug tumor-to-plasma partition ratio, Enhancing tumor, MAX” value (everolimus 2.5 mg QD 5 days) was 2.738. For the same molecule, the “Kp total drug tumor-to-plasma partition ratio, Enhancing tumor, MIN” value (everolimus 2.5 mg QD 5 days) was “BLQ”, the “Kp total drug tumor-to-plasma partition ratio, Non-enhancing tumor, MAX” value (everolimus 2.5 mg QD 5 days) was 1.02 and the “Kp total drug tumor-to-plasma partition ratio, Non-enhancing tumor, MIN” value (everolimus 2.5 mg QD 5 days) was “BLQ”. For the same molecule, the “Kp total drug tumor-to-plasma partition ratio, Enhancing tumor, MAX” value (everolimus 5 mg QD 5 days) was 1.77, the “Kp total drug tumor-to-plasma partition ratio, Enhancing tumor, MIN” value (everolimus 5 mg QD 5 days) was 0.59 and the “Kp total drug tumor-to-plasma partition ratio, Non-enhancing tumor, MAX” value (everolimus 5 mg QD 5 days) was 1.09. The “Kp total drug tumor-to-plasma partition ratio, Non-enhancing tumor, MIN” value (everolimus 5 mg QD 5 days) was 0.37, the “Kp total drug tumor-to-plasma partition ratio, Enhancing tumor, MAX” value (everolimus 10 mg QD 5 days) was 1.97 and the “Kp total drug tumor-to-plasma partition ratio, Enhancing tumor, MIN” value (everolimus 10 mg QD 5 days) was “BLQ”. For the same molecule, the “Kp total drug tumor-to-plasma partition ratio, Non-enhancing tumor, MAX” value (everolimus 10 mg QD 5 days) was 1.07, the “Kp total drug tumor-to-plasma partition ratio, Non-enhancing tumor, MIN” value (everolimus 10 mg QD 5 days) was 0.07 and the “Kp total drug tumor-to-plasma partition ratio, Enhancing tumor, MAX” value (everolimus 50 mg single dose) was 1.18. For the same molecule, the “Kp total drug tumor-to-plasma partition ratio, Enhancing tumor, MIN” value (everolimus 50 mg single dose) was 0.65, the “Kp total drug tumor-to-plasma partition ratio, Non-enhancing tumor, MAX” value (everolimus 50 mg single dose) was 0.32 and the “Kp total drug tumor-to-plasma partition ratio, Non-enhancing tumor, MIN” value (everolimus 50 mg single dose) was “BLQ”. For the same molecule, the “Kp total drug tumor-to-plasma partition ratio, Enhancing tumor, MAX” value (everolimus 60 mg single dose) was 1.24, the “Kp total drug tumor-to-plasma partition ratio, Enhancing tumor, MIN” value (everolimus 60 mg single dose) was 0.145 and the “Kp total drug tumor-to-plasma partition ratio, Non-enhancing tumor, MAX” value (everolimus 60 mg single dose) was 0.51. For the same molecule, the “Kp total drug tumor-to-plasma partition ratio, Enhancing tumor, MAX” value (everolimus 70 mg single dose) was 1.64, the “Kp total drug tumor-to-plasma partition ratio, Enhancing tumor, MIN” value (everolimus 70 mg single dose) was 0.34 and the “Kp total drug tumor-to-plasma partition ratio, Non-enhancing tumor, MAX” value (everolimus 70 mg single dose) was 1.47. For the same molecule, the “Kp total drug tumor-to-plasma partition ratio, Non-enhancing tumor, MIN” value (everolimus 70 mg single dose) was 0.075, the concentration at 5 days (CSF, Total everolimus, MAX, 10 mg QD 5 days) was 2.5 nM and the concentration at 5 days (CSF, Total everolimus, MAX, 50 mg single dose) was 1.5 nM. The concentration at 5 days (CSF, Total everolimus, MED, 2.5 mg QD 5 days) was 0.33 nM, the concentration at 5 days (CSF, Total everolimus, MED, 50 mg single dose) was 0.935 nM and the concentration at 5 days (CSF, median everolimus CSF concentration, across the different dose levels) was 0.48 nM. It also gave a Kp at 120 h (enhancing tumor and plasma, 2.5 mg) of 0.62, a Kp at 120 h (enhancing tumor and plasma, 5 mg) of 1.32 and a Kp at 120 h (enhancing tumor and plasma, 10 mg) of 1.2. It also gave a Kp (enhancing tumor and plasma, 50 mg) of 0.89, a Kp (enhancing tumor and plasma, 60 mg) of 0.33 and a Kp (enhancing tumor and plasma, 70 mg) of 1.35. The concentration at 5 days (enhancing tumor, Total everolimus, MAX, 2.5 mg QD 5 days) was 83.4 nM, the concentration at 5 days (enhancing tumor, Total everolimus, MAX, 5 mg QD 5 days) was 39.8 nM and the concentration at 5 days (enhancing tumor, Total everolimus, MAX, 10 mg QD 5 days) was 61.3 nM. It also gave a concentration at 5 days (enhancing tumor, Total everolimus, MAX, 50 mg single dose) of 74.1 nM, a concentration at 5 days (enhancing tumor, Total everolimus, MAX, 60 mg single dose) of 87.6 nM and a concentration at 5 days (enhancing tumor, Total everolimus, MAX, 70 mg single dose) of 90 nM. For the same molecule, the concentration at 5 days (enhancing tumor, Total everolimus, MED, 2.5 mg QD 5 days) was 5.9 nM, the concentration at 5 days (enhancing tumor, Total everolimus, MED, 5 mg QD 5 days) was 16.6 nM and the concentration at 5 days (enhancing tumor, Total everolimus, MED, 10 mg QD 5 days) was 44 nM. The concentration at 5 days (enhancing tumor, Total everolimus, MED, 50 mg single dose) was 54.5 nM, the concentration at 5 days (enhancing tumor, Total everolimus, MED, 60 mg single dose) was 30.4 nM and the concentration at 5 days (enhancing tumor, Total everolimus, MED, 70 mg single dose) was 71.8 nM. For the same molecule, the concentration at 5 days (enhancing tumor, Total everolimus, MIN, 5 mg QD 5 days) was 11.1 nM, the concentration at 5 days (enhancing tumor, Total everolimus, MIN, 50 mg single dose) was 51.6 nM and the concentration at 5 days (enhancing tumor, Total everolimus, MIN, 60 mg single dose) was 9.8 nM. It also gave a concentration at 5 days (enhancing tumor, Total everolimus, MIN, 70 mg single dose) of 31.2 nM, a Kp at 120 h (non-enhancing tumor / plasma, 5 mg) of 0.89 and a Kp at 120 h (non-enhancing tumor / plasma, 10 mg) of 0.1. It also gave a Kp at 120 h (non-enhancing tumor and plasma, 2.5 mg) of 0.49, a Kp (non-enhancing tumor and plasma, 50 mg) of 0.21 and a Kp (non-enhancing tumor and plasma, 60 mg) of 0.17. The Kp (non-enhancing tumor and plasma, 70 mg) was 0.15, the concentration at 5 days (non-enhancing tumor, Total everolimus, MAX, 2.5 mg QD 5 days) was 35.3 nM and the concentration at 5 days (non-enhancing tumor, Total everolimus, MAX, 5 mg QD 5 days) was 20.2 nM. For the same molecule, the concentration at 5 days (non-enhancing tumor, Total everolimus, MAX, 10 mg QD 5 days) was 33.3 nM, the concentration at 5 days (non-enhancing tumor, Total everolimus, MAX, 50 mg single dose) was 25.1 nM and the concentration at 5 days (non-enhancing tumor, Total everolimus, MAX, 60 mg single dose) was 36.1 nM. It also gave a concentration at 5 days (non-enhancing tumor, Total everolimus, MAX, 70 mg single dose) of 78.2 nM, a concentration at 5 days (non-enhancing tumor, Total everolimus, MED, 2.5 mg QD 5 days) of 5.28 nM and a concentration at 5 days (non-enhancing tumor, Total everolimus, MED, 5 mg QD 5 days) of 10.3 nM. The concentration at 5 days (non-enhancing tumor, Total everolimus, MED, 10 mg QD 5 days) was 5 nM, the concentration at 5 days (non-enhancing tumor, Total everolimus, MED, 50 mg single dose) was 15.7 nM and the concentration at 5 days (non-enhancing tumor, Total everolimus, MED, 60 mg single dose) was 13.8 nM. The concentration at 5 days (non-enhancing tumor, Total everolimus, MED, 70 mg single dose) was 8.2 nM, the concentration at 5 days (non-enhancing tumor, Total everolimus, MIN, 5 mg QD 5 days) was 9.2 nM and the concentration at 5 days (non-enhancing tumor, Total everolimus, MIN, 10 mg QD 5 days) was 4.5 nM. The concentration at 5 days (non-enhancing tumor, Total everolimus, MIN, 60 mg single dose) was 11.3 nM, the concentration at 5 days (non-enhancing tumor, Total everolimus, MIN, 70 mg single dose) was 6.8 nM and the concentration at 5 days (tumor tissue (enhancing and non-enhancing regions), unbound everolimus concentrations in enhancing and non-enhancing tumor regions (below the lower limit of quantitation), all dose levels) was less than 0.1 nM.
